Values after ≈ are worked out from the molar mass of the structure shown. Positions of bridges follow the written chain, without caps; N, C: chain ends. Non-standard residues stand in square brackets, D forms with d. Residues, ends and D or L forms follow the SMILES beside them. *: point of attachment. Octatrienoyl(2E,4E,6E) = C/C=C/C=C/C=C/C(=O)*; Pro(4R-Me) = C[C@H]1CN[C@H](C(=O)O)C1; NMeA = CN[C@@H](C)C(=O)O

The subject of series [1] is Enterobacter cloacae. Put plainly: Antibacterial activity against Enterobacter cloacae 3-46 by broth microdilution method. It counts as functional. (Broth dilution looks for growth in wells or tubes with falling amounts of substance.)
Series [2] can be described thus: Drug accumulation in Escherichia coli MG1655 assessed per 10^12 CFU at 50 uM incubated for 10 mins under shaking condition by LC-MS/MS analysis. The format is ADME, K-12 substr. MG1655.
The subject of series [3] is Escherichia coli. Put plainly: Antibacterial activity against Escherichia coli ELZ4017 by broth microdilution method. It counts as functional.
Series [4] has as its system Enterobacter cloacae. Put plainly: Antibacterial activity against Enterobacter cloacae 1-60 by broth microdilution method. The format is functional.
Series [5] deals with Escherichia coli. The series can be described thus: Antibacterial activity against Escherichia coli ELZ4045 by broth microdilution method. It counts as functional.
The subject of series [6] is Escherichia coli. Put plainly: Antibacterial activity against Escherichia coli ELZ4072 by broth microdilution method. The format is functional.
For series [7], the system named is Escherichia coli. Put plainly: Antibacterial activity against Escherichia coli ELZ4346 by broth microdilution method. The format is functional.
Series [8] relates to Klebsiella pneumoniae. The series can be described thus: Antibacterial activity against Klebsiella pneumoniae ATCC 27736 by broth microdilution method. It counts as functional.
Series [9] concerns Enterobacter cloacae. The series can be described thus: Antibacterial activity against Enterobacter cloacae ATCC 29893 by broth microdilution method. It counts as functional.
Series [10] concerns Escherichia coli. The series can be described thus: Antibacterial activity against Escherichia coli MG1655 by broth microdilution method. The format is functional. Particulars: K-12 substr. MG1655.
The subject of series [11] is Staphylococcus aureus. Put plainly: Antibacterial activity against Staphylococcus aureus ATCC 29213 by broth microdilution method. The format is functional.
Series [12] has as its system Escherichia coli. The series can be described thus: Antibacterial activity against Escherichia coli ELZ4239 by broth microdilution method. The format is functional.
In series [13] the test system is Escherichia coli. The series can be described thus: Antibacterial activity against Escherichia coli BAA-2469 by broth microdilution method. It counts as functional.
The test system of series [14] is Escherichia coli. Put plainly: Antibacterial activity against Escherichia coli ELZ4081 by broth microdilution method. It counts as functional.
In series [15] the test system is Klebsiella pneumoniae. Put plainly: Antibacterial activity against Klebsiella pneumoniae 4-38 by broth microdilution method. It counts as functional.
The subject of series [16] is Klebsiella pneumoniae. The series can be described thus: Antibacterial activity against Klebsiella pneumoniae 6-73 by broth microdilution method. The format is functional.
In series [17] the test system is Staphylococcus aureus. Put plainly: Antibacterial activity against Staphylococcus aureus NRS3 by broth microdilution method. The format is functional.
For series [18], the system named is Pseudomonas aeruginosa. Put plainly: Growth inhibition of Pseudomonas aeruginosa PA14 after 24 hrs. The format is functional, organism-based. The note with it: PA14, 24 h.
Series [19] relates to Staphylococcus aureus. The series can be described thus: Antibacterial activity against methicillin-resistant Staphylococcus aureus NRS119 by CLSI-based broth microdilution method. The format is functional, organism-based.
For series [20], the system named is Pseudomonas aeruginosa. Put plainly: Antibacterial activity against Pseudomonas aeruginosa PAO1 after 20 hrs under iron-deficient medium by broth microdilution method. The note with it: PAO1, 20 h. It counts as functional.
Series [21] deals with Pseudomonas aeruginosa. Put plainly: Antibacterial activity against Pseudomonas aeruginosa PA4 after 20 hrs under iron-rich medium by broth microdilution method. It counts as functional. Particulars: PA4, 20 h.
Series [22] deals with Pseudomonas aeruginosa. The series can be described thus: Antibacterial activity against Pseudomonas aeruginosa KW799/61 after 20 hrs under iron-deficient medium by broth microdilution method. The format is functional. The note with it: KW799/61, 20 h.
For series [23], the system named is Pseudomonas aeruginosa. Put plainly: Antibacterial activity against Pseudomonas aeruginosa KW799 after 20 hrs under iron-rich medium by broth microdilution method. The format is functional. Particulars: KW799, 20 h.
Series [24] deals with Pseudomonas aeruginosa. The series can be described thus: Antibacterial activity against Pseudomonas aeruginosa KW799/61 after 20 hrs under iron-rich medium by broth microdilution method. Particulars: KW799/61, 20 h. It counts as functional.
In series [25] the test system is Pseudomonas aeruginosa. The series can be described thus: Antibacterial activity against Pseudomonas aeruginosa KW799 after 20 hrs under iron-deficient medium by broth microdilution method. It counts as functional. Particulars: KW799, 20 h.
Series [26] concerns Pseudomonas aeruginosa. Put plainly: Antibacterial activity against Pseudomonas aeruginosa PA4 after 20 hrs under iron-deficient medium by broth microdilution method. The format is functional. Particulars: PA4, 20 h.
The test system of series [27] is Pseudomonas aeruginosa. The series can be described thus: Antibacterial activity against Pseudomonas aeruginosa PAO1 after 20 hrs under iron-rich medium by broth microdilution method. The note with it: PAO1, 20 h. The format is functional.
Series [28] concerns Pseudomonas aeruginosa. Put plainly: Antibacterial activity against Pseudomonas aeruginosa ATCC 27853 by broth microdilution method. It counts as functional.
In series [29] the test system is Enterococcus faecalis. The series can be described thus: Antibacterial activity against Enterococcus faecalis UNT-047 expressing ermB by broth microdilution method. The format is functional.
In a further series the test system is Acinetobacter baumannii. The series can be described thus: Antibacterial activity against Acinetobacter baumannii ATCC 19606 by broth microdilution method. It counts as functional. Particulars: ATCC 19606 = CIP 70.34 = JCM 6841.
In series [30] the test system is Staphylococcus aureus. Put plainly: Antibacterial activity against Staphylococcus aureus BAA-977 expressing iermA by broth microdilution method. It counts as functional.
Series [31] has as its system Streptococcus pneumoniae. Put plainly: Antibacterial activity against Streptococcus pneumoniae UNT-042 expressing ermB/mefA by broth microdilution method. It counts as functional.
Series [32] relates to Staphylococcus aureus. The series can be described thus: Antibacterial activity against methicillin-resistant Staphylococcus aureus NRS384 expressing MsrA by broth microdilution method. The format is functional.
Series [33] has as its system Enterococcus faecalis. Put plainly: Antibacterial activity against Enterococcus faecalis ATCC 29212 by broth microdilution method. The format is functional.
In series [34] the test system is Streptococcus pneumoniae. Put plainly: Antibacterial activity against Streptococcus pneumoniae ATCC 49619 by broth microdilution method. The format is functional.
The subject of series [35] is Staphylococcus aureus. The series can be described thus: Antibacterial activity against Staphylococcus aureus ATCC 25923 after 16 to 20 hrs by CLSI protocol based broth microdilution method. The format is functional.
The test system of series [36] is Staphylococcus epidermidis. The series can be described thus: Antibacterial activity against Staphylococcus epidermidis ATCC 12228 after 16 to 20 hrs by CLSI protocol based broth microdilution method. The format is functional.
In another series the test system is Enterococcus faecium. The series can be described thus: Antibacterial activity against […] Enterococcus faecium 1092 after 20 hrs by CLSI-based microdilution method. It counts as functional. The note with it: Enterococcus faecium, 1092, 20 h.
The test system of another series is Haemophilus influenzae. The series can be described thus: Antibacterial activity against Haemophilus influenzae 1244 after 20 hrs by CLSI-based microdilution method. The format is functional. The note with it: Haemophilus influenzae, 1244, 20 h.
The test system of series [37] is Streptococcus pneumoniae. Put plainly: Antibacterial activity against Streptococcus pneumoniae 911 after 20 hrs by CLSI-based microdilution method. Particulars: Streptococcus pneumoniae, 911, 20 h. It counts as functional.
The subject of series [38] is Staphylococcus aureus. Put plainly: Antibacterial activity against methicillin-resistant Staphylococcus aureus 757 after 20 hrs by CLSI-based microdilution method. It counts as functional. Particulars: Staphylococcus aureus, 757, 20 h.
The test system of series [39] is Escherichia coli. The series can be described thus: Antibacterial activity against Escherichia coli 2271 after 20 hrs by CLSI-based microdilution method. It counts as functional. Particulars: Escherichia coli, 2271, 20 h.
The test system of series [40] is Staphylococcus aureus. Put plainly: Antibacterial activity against methicillin-resistant Staphylococcus aureus 2011 after 20 hrs by CLSI-based microdilution method. It counts as functional. The note with it: Staphylococcus aureus, 2011, 20 h.
Series [41] relates to Escherichia coli. The series can be described thus: Antibacterial activity against Escherichia coli 121 after 20 hrs by CLSI-based microdilution method. It counts as functional. Particulars: O157:H7 str. 121, 20 h.

As to `Cc1cc(=O)n(C)c2c3c4c(cc12)c(C)cc(=O)n4CCO3`, the MIC with Enterobacter cloacae [1] is not below 32 µg/mL; against Escherichia coli [3], more than 32 µg/mL; in the series on Enterobacter cloacae [4] it was not below 32 µg/mL; with Escherichia coli [5], more than 32 µg/mL; against Escherichia coli [6], more than 32 µg/mL; in the series with Escherichia coli [7], more than 32 µg/mL. Moreover, the MIC against Klebsiella pneumoniae [8] was more than 32 µg/mL; in the series with Enterobacter cloacae [9] it was not below 32 µg/mL; in the series with Escherichia coli [10], more than 32 µg/mL; against Staphylococcus aureus [11] it was 0.06 to 1 µg/mL (≈ 0.202 to 3.37 µM); against Escherichia coli [12] it was more than 32 µg/mL; in the series on Escherichia coli [13], more than 32 µg/mL. The MIC in the series on Escherichia coli [14] was more than 32 µg/mL; in the series on Klebsiella pneumoniae [15] it was more than 32 µg/mL; with Klebsiella pneumoniae [16], more than 32 µg/mL; in the series with Staphylococcus aureus [17], 0.06 to 1 µg/mL (≈ 0.202 to 3.37 µM). The Drug uptake in [2] was found to be 298 nmol.

Turning to `CCCCCC[C@H](CCCCC[C@@H](O)C(N)=O)OC(=O)[C@@H]1CCCCN1C(=O)c1ccccc1O`, the IC50 (in general, the concentration that gives 50% inhibition) with Pseudomonas aeruginosa [18] is more than 250 µM.

Consider `CCCCCC[C@H](CCCCC[C@@H](O)C(N)=O)OC(=O)[C@@H]1CC(F)=CN1C(=O)c1ccccc1O`, for which half-maximal inhibition in the series on Pseudomonas aeruginosa [18] (IC50) required 0.019 µM.

In the series with Pseudomonas aeruginosa [18], `CCCCCC[C@H](CCCCC[C@@H](O)C(N)=O)NC(=O)[C@@H]1CC=CN1C(=O)c1ccccc1O` yielded an IC50 of more than 250 µM.

In the series with Staphylococcus aureus [19], `C[C@@H]1C[C@H]2C(=O)OC[C@H](NC(=O)[C@H](Cc3cc(F)cc(F)c3)NC(=O)CCC3CCCCC3)C(=O)N3CCC[C@H]3C(=O)N3CCCC[C@H]3C(=O)N[C@@H](C)C(=O)N2C1` yielded an IC50 of 0.5 µM.

As for `C/C=C/C=C/C=C/C(=O)N[C@@H](Cc1ccccc1)C(=O)N[C@H]1COC(=O)[C@@H]2C[C@@H](C)CN2C(=O)[C@H](C)NC(=O)[C@H](C)N(C)C(=O)[C@@H]2CCCN2C1=O` ({Octatrienoyl(2E,4E,6E)}-FSP[NMeA]A[Pro(4R-Me)]; ester 2-C), in the series with Staphylococcus aureus [19], the IC50 stood at 8.76 µM.

Turning to `CC1(C)S[C@@H]2[C@H](NC(=O)[C@H](N)c3ccc(O)cc3)C(=O)N2[C@H]1C(=O)O` [AMOXICILLIN], the MIC in the series on Pseudomonas aeruginosa [20], in the series with Pseudomonas aeruginosa [21], against Pseudomonas aeruginosa [22], in the series with Pseudomonas aeruginosa [23], in the series on Pseudomonas aeruginosa [24] and against Pseudomonas aeruginosa [25] was more than 100 µM each time. Also, the MIC in the series on Pseudomonas aeruginosa [26] and in the series with Pseudomonas aeruginosa [27] was more than 100 µM in each case.

On to `CC[C@H]1OC(=O)[C@H](C)[C@@H](O[C@H]2C[C@@](C)(OC)[C@@H](O)[C@H](C)O2)[C@H](C)[C@@H](O[C@@H]2O[C@H](C)C[C@H](N(C)C)[C@H]2O)[C@](C)(O)C[C@@H](C)C(=O)[C@H](C)[C@@H](O)[C@]1(C)O` [ERYTHROMYCIN], for which the MIC against Pseudomonas aeruginosa [28] is 64 µg/mL (≈ 87.2 µM); with Enterococcus faecalis [29] it was more than 256 µg/mL; against Acinetobacter baumannii it was 16 µg/mL (≈ 21.8 µM); with Staphylococcus aureus [30], more than 256 µg/mL; in the series with Streptococcus pneumoniae [31], more than 256 µg/mL; with Staphylococcus aureus [11], 0.5 µg/mL (≈ 0.681 µM). Besides, the MIC was found to be 64 µg/mL (≈ 87.2 µM) in the series on Staphylococcus aureus [32], 1 µg/mL (≈ 1.36 µM) with Enterococcus faecalis [33] and 0.03 µg/mL (≈ 0.0409 µM) against Streptococcus pneumoniae [34].

On to `c1ccc2nc3ccccc3nc2c1` [PHENAZINE], for which the MIC (in the series with Staphylococcus aureus [35]; in [36]) was 6.25 µM (≈ 1.13 µg/mL) each time.

`Cn1c2cccc(=O)c-2nc2ccccc21` [PYOCYANIN]: the MIC (in the series on Staphylococcus aureus [35]; in series [36]) was 50 µM (≈ 10.5 µg/mL) in each case.

Turning to `CN(C)[C@@H]1C(O)=C(C(N)=O)C(=O)[C@@]2(O)C(O)=C3C(=O)c4c(O)cccc4[C@@](C)(O)[C@H]3C[C@@H]12` [TETRACYCLINE], the MIC was more than 64 µg/mL against Enterococcus faecium; 16 µg/mL (≈ 36 µM) in the series on Haemophilus influenzae; 64 µg/mL (≈ 144 µM) against Streptococcus pneumoniae [37]; 64 µg/mL (≈ 144 µM) with Staphylococcus aureus [38]; 64 µg/mL (≈ 144 µM) against Escherichia coli [39]; 32 µg/mL (≈ 72 µM) in the series with Staphylococcus aureus [40]. The MIC against Escherichia coli [41] is 64 µg/mL (≈ 144 µM).

The record behind these values is ChEMBL document CHEMBL4321783, “Recent Progress in Natural-Product-Inspired Programs Aimed To Address Antibiotic Resistance and Tolerance” (J Med Chem, 2019).
